# Results as given in ChEMBL document CHEMBL1126429, “MDL 74147, a novel selective and soluble inhibitor of human renin. Synthesis, structure-activity relationship, species and protease selectivities” (Bioorg Med Chem Lett, 1992).
# Where a SMILES comes first, the peptide text is derived from it. [ ]: non-standard residue; d: D form. The star is where a group is joined. Cha = N[C@@H](CC1CCCCC1)C(=O)O; Boc = CC(C)(C)OC(=O)*; CF3 = FC(F)(F)*
# How the values were obtained:
# Renin = molecular target: T1, Renin (Homo sapiens, UniProt P00797); experiment: Concentration required to inhibit human plasma renin by 50% using radio-immunoassay was determined; assay type: cell-free
# T1 sequence (P00797 whole entry): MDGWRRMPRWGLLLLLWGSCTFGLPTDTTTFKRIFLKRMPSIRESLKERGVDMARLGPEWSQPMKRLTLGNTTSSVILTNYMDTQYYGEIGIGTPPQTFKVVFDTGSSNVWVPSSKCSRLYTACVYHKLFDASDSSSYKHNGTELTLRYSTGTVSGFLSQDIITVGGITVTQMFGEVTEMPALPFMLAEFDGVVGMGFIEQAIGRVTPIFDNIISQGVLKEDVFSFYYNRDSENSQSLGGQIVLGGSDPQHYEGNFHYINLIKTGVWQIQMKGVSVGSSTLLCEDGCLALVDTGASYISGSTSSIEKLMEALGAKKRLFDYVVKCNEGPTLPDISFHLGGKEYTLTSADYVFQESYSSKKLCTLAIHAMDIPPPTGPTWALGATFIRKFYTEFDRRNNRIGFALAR
# Chymotrypsinogen A = Chymotrypsinogen A (Bos taurus, UniProt P00766); experiment: Concentration required to inhibit the enzyme chymotrypsin
# Pepsin A = Pepsin A (Sus scrofa, UniProt P00791); experiment: Concentration required to inhibit the enzyme pepsin
# Pepsin A, sequence (P00791 whole entry): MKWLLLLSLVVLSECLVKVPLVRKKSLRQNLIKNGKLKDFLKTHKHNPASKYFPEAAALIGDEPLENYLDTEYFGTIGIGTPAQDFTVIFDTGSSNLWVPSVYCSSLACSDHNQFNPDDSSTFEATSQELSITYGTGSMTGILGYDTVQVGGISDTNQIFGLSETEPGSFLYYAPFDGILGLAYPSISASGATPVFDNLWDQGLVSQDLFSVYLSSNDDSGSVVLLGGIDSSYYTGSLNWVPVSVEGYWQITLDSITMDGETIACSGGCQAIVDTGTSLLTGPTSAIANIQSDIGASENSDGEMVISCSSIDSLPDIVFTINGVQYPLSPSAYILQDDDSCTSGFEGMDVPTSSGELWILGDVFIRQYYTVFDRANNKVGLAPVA
SMILES,IC50 (Renin) [µM],Ki (Chymotrypsinogen A) [µM],Ki (Pepsin A) [µM]
CCC[C@@H](C(=O)N[C@@H](CC1CCCCC1)C(=O)C(F)(F)CN)N(C)C(=O)[C@H](Cc1ccc(OC)cc1)NC(=O)CC(C)C,40,,
CCC[C@H](NC(=O)[C@H](Cc1ccc(OC)cc1)NC(=O)CC(C)C)C(=O)N[C@@H](CC1CCCCC1)C(O)C(F)(F)CN (some centres not stated),> 1,,
CCC[C@H](NC(=O)[C@H](Cc1ccc(OC)cc1)NC(=O)CC(C)C)C(=O)N[C@@H](CC1CCCCC1)C(=O)C(F)(F)CN,,2.5,40
COc1ccc(C[C@H](NC(=O)CC(C)C)C(=O)CCC(=O)N[C@@H](CC2CCCCC2)C(=O)C(F)(F)CN)cc1,25,,

# The remaining compounds from weak to strong by IC50 (Renin), led by results:
IC50 (Renin) [µM],Ki (Chymotrypsinogen A) [µM],Ki (Pepsin A) [µM],SMILES
27,,,COc1ccc(C[C@H](NC(=O)CC(C)C)C(=O)N[C@H](C)C(=O)N[C@@H](CC2CCCCC2)C(=O)C(F)(F)CN)cc1
0.25,,,CC(C)C[C@H](NC(=O)[C@H](Cc1ccccc1)NC(=O)OC(C)(C)C)C(=O)N[C@@H](CC1CCCCC1)C(=O)C(F)(F)F (Boc-Phe-Leu-[Cha]-CF3)
